Experimental findings from patent publication US20220220155A1, “VASCULAR C[…] USE THEREOF” (priority 2019, published 2022) are described below.

Where a SMILES comes first, the peptide text is derived from it. [ ]: non-standard residue; d: D form. ξ: configuration not given here. ξD = NC(CC(=O)O)C(=O)O

In one experiment the target is T1, SMase-treated LDL (Homo sapiens, UniProt P04114).
T1 construct: from tissue; host or cells: pooled normolipemic human plasma
Nature of the experiment: Anti-LDL aggregation assay, turbidimetry, aggregation induced by sphingomyelinase (SMase). Type of experiment: biochemical. The note with it: peptide 10 μM (compound/ApoB-100 4.7/1), human LDL 1.44 mg/mL, 40 U/L Bacillus cereus SMase, 18 hours, 37° C., absorbance at 405 nm, Equation I. The protocol: (§1) The efficacy of the novel compounds to inhibit the aggregation of LDL has been tested in two parallel turbidimetric assays differing from each other only in the enzyme used to induce LDL aggregation, namely sphingomyelinase (SMase) and phospholipase A2 (PLA2), respectively.
(§2) Human LDL (d1.019-d1.063 g/mL) were obtained from pooled normolipemic human plasma by sequential ultracentrifugation in a KBr density gradient. Briefly, VLDL were first discarded after spinning plasma at 36.000 rpm for 18 h at 4° C., VLDL-free plasma was layered with 1.063 g/mL KBr solution and centrifuged at 36,000 rpm for 18 h at 4° C. LDL were dialyzed against 0.02 M Tris, 0.15 M NaCl, 1 mM EDTA, pH 7.5 for 18 hours, and then against normal saline for 2 hours. Finally, isolated LDL were filter-sterilized. Protein concentration was determined using a colorimetric assay.
(§3) Human LDL particles (1.44 mg/mL) were incubated with 40 U/L of Bacillus cereus SMase or with 50 μg/L of type II secretory PLA2 from honey bee venom in 20 mM Tris buffer (pH 7.0) containing 150 mM NaCl, 2 mM CaCl2), and MgCl2 at 37° C. LDL incubation with SMase and PLA2 was performed at peptide concentration of 10 μM (ratio compound/ApoB-100: 4.7/1) for 18 hours. LDL lipolysis was stopped by addition of EDTA (final concentration 10 mM).
(§4) The efficiency of each novel compound to inhibit LDL aggregation induced by SMase and PLA2 was estimated by turbidimetry measuring the absorbance at a wavelength of 405 nm. Thus, the inhibitory activity was calculated according to Equation I.
(§5) a corresponds to the absorbance value in the presence of nLDL particles, LDL aggregating enzyme (i.e., SMase or PLA2) and test compound;
(§6) b corresponds to the absorbance value in the presence of only nLDL particles;
(§7) c corresponds to the absorbance value in the presence of nLDL particles and LDL aggregating enzyme (i.e., SMase or PLA2);

In the next experiment the target is T2, PLA2-treated LDL (Homo sapiens, UniProt P04114).
T2 construct: from tissue; host or cells: pooled normolipemic human plasma
T2 sequence (P04114 28-4563): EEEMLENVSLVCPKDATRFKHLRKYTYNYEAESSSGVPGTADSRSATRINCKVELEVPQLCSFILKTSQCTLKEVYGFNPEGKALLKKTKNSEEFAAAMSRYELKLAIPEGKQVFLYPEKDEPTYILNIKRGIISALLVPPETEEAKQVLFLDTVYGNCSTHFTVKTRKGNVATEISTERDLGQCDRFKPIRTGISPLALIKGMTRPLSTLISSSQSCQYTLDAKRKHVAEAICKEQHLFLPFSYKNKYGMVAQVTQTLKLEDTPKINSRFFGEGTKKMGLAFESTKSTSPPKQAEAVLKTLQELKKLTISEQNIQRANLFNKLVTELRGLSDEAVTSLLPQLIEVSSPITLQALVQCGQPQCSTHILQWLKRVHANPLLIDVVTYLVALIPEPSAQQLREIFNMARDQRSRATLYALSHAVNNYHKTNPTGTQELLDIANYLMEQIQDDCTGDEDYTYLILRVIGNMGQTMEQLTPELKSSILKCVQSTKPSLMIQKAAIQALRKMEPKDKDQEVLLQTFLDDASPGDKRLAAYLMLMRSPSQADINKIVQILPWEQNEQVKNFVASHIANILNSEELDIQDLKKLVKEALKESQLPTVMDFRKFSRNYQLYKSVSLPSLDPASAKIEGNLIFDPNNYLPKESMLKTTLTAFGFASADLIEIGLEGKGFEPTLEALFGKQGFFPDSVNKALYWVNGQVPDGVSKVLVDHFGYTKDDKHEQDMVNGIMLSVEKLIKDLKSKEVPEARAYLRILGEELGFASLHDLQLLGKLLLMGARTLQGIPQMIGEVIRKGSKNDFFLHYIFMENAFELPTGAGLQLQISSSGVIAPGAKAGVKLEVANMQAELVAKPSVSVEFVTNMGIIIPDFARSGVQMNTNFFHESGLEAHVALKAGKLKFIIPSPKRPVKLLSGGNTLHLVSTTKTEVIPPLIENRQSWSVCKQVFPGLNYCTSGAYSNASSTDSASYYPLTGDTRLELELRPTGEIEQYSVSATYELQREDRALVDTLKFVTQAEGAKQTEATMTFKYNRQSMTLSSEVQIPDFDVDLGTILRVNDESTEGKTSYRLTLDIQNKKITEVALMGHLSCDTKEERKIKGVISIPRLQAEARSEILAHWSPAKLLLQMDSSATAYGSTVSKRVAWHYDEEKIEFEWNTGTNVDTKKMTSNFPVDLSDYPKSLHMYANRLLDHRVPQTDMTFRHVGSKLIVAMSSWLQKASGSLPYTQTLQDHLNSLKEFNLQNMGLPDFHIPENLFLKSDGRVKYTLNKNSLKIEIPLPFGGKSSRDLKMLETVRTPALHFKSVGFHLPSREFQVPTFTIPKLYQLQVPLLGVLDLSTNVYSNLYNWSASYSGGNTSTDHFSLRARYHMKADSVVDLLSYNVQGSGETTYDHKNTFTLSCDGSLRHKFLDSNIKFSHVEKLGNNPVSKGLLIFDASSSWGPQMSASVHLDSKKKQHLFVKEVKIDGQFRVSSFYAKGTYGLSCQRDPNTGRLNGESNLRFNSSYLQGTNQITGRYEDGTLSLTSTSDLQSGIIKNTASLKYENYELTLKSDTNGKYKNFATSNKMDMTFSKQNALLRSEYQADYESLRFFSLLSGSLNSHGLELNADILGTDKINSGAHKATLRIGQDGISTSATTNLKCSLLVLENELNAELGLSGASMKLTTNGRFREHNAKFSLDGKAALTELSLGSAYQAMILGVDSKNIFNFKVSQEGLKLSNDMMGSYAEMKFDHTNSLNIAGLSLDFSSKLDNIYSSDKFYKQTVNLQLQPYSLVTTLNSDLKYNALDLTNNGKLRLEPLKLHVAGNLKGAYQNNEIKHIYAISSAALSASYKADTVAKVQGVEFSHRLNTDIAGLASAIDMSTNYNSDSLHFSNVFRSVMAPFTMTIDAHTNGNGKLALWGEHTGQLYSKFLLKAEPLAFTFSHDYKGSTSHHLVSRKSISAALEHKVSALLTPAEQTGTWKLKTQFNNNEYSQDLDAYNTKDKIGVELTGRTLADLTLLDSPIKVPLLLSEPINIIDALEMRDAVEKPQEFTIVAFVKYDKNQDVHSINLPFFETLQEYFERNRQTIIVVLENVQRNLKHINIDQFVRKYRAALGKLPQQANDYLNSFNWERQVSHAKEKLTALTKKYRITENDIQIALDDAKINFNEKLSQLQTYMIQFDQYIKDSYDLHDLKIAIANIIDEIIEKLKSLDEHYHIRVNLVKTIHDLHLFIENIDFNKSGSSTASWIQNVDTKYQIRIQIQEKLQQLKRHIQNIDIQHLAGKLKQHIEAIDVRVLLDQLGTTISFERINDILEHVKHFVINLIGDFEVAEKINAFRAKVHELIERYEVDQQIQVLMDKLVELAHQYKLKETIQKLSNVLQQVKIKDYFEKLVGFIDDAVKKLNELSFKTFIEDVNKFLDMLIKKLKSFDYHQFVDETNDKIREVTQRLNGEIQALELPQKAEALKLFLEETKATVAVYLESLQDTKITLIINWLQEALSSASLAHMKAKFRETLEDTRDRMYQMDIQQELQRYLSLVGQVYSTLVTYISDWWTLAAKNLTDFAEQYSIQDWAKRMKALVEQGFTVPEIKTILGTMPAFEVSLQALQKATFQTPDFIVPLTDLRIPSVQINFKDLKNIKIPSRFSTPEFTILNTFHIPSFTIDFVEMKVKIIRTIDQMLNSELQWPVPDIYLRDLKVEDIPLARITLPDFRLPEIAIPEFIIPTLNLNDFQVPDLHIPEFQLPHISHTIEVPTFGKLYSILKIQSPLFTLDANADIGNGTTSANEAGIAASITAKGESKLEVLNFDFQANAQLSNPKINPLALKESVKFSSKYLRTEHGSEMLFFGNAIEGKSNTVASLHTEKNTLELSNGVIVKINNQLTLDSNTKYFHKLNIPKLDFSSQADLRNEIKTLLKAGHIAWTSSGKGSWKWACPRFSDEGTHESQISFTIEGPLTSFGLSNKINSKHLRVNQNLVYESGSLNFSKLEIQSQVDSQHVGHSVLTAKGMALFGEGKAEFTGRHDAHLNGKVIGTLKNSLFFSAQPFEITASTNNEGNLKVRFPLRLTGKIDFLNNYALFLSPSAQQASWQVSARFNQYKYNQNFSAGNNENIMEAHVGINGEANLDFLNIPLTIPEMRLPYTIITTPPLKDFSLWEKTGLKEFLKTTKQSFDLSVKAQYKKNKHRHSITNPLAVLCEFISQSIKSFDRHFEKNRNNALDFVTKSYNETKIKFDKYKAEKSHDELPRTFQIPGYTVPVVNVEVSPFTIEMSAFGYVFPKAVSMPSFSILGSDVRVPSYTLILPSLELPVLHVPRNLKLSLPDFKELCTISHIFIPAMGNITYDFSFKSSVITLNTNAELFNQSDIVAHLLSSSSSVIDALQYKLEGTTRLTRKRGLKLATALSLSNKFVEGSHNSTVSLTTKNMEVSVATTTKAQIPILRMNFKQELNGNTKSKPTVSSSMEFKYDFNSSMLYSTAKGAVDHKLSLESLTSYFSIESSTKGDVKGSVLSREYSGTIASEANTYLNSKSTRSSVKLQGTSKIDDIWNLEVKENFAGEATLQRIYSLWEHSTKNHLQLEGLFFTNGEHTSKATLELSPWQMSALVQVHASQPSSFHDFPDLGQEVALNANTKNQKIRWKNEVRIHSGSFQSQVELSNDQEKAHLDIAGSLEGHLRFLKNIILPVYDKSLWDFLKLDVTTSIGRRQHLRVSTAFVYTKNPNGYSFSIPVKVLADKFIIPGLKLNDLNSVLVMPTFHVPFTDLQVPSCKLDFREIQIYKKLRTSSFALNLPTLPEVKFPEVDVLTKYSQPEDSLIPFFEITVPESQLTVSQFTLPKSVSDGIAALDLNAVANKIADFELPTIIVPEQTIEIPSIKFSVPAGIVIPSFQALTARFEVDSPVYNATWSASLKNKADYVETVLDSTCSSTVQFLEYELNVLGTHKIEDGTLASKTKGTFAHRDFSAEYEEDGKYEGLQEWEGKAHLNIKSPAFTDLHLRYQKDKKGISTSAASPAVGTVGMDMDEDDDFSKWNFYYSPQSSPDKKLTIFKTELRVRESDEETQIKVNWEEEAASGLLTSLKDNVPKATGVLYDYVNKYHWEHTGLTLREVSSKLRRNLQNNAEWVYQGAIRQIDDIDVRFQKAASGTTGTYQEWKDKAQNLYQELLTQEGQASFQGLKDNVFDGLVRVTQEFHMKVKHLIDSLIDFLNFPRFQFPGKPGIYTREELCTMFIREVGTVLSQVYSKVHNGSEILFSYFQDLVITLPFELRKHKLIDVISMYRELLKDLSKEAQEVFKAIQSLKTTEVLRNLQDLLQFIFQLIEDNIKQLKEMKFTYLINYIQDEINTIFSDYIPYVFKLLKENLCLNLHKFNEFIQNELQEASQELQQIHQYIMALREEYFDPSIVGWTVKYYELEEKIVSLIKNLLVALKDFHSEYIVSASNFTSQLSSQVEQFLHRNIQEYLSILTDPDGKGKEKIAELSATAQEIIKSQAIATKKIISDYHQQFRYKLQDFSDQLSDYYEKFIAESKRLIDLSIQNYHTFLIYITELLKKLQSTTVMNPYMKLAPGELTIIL
Put plainly: Anti-LDL aggregation assay, turbidimetry, aggregation induced by phospholipase A2 (PLA2). It is filed as biochemical. To be noted: 18 h, read-out: Inhibition of LDL aggregation, PLA2-treated LDL. The procedure: as §1, §2, §3, §4, §5, §6, §7

Experiment [1] has as its system human coronary vascular smooth muscle cells (hcVSMC). Put plainly: Inhibition of intracellular cholesterol accumulation induced by SMase (CE/FC ratio). The note with it: hcVSMC exposed 2 hours to SMase-LDL treated overnight with peptide 10 μM; CE and FC by thin layer chromatography and densitometry, Equation II. It is filed as cell-based. The protocol: Thus, the inhibitory effect of the novel compounds on the intracellular cholesterol accumulation has been analysed in terms of decrease in the ratio of intracellular CE and free cholesterol FC content of hcVSMC exposed to LDL and SMase-LDL.
All cells used were from a unique batch in order to prevent variability from cell origin. Cell quiescence was induced by maintaining the cell culture for 24 hours in a medium. Serum-deprived cells between passages 4 and 8 were used for experiments. VSMCs at these passages appeared as a relatively homogeneous population, showing a hill-and-valley confluence pattern. Cell monolayers were grown in vascular cell basal medium supplemented with vascular smooth muscle growth kit components. Quiescent cells were 2-hours exposed to LDL treated with SMase (in absence or presence of peptides) overnight at a concentration of 10 μM previously checked its aggregation by a turbidimetry test. Cells were then either collected for lipid extraction or processed for confocal microscopy analysis.
Following the lipoprotein incubation period, hcVSMC were exhaustively washed (twice with PBS, twice with PBS supplemented with 1% BSA, and once with PBS supplemented with both 1% BSA and 100 U/mL heparin), before they were harvested into 1 mL of 0.15 M NaOH. Lipids were extracted using the Bligh and Dyer method. The lipid extract was redissolved in dichloromethane, applied to silica gel plates, and separated by thin layer chromatography. A mixture of cholesterol and cholesterol palmitate, were also run as standards. Heptane or a solvent combination of heptane/diethylether/acetic acid (74:21:4, v/v/v) were used as chromatographic mobile phase. After lipid separation, the plates were dried and stained as previously reported. Finally, the spots corresponding to cholesteryl ester (CE) and free cholesterol (FC) were quantitated by densitometry.
The efficacy of each novel compound to decrease the ratio of intracellular cholesteryl esters (CE) and free cholesterol (FC) content of hcVSMC exposed to LDL and SMase-LDL was calculated according to Equation II.
a corresponds to the CE/FC ratio in hcVSMC exposed to SMase-LDL and in the presence of the test compound.
b corresponds to the CE/FC ratio in hcVSMC exposed to nLDL in the absence of the test compound.
c corresponds to the CE/FC ratio in hcVSMC exposed to SMase-LDL in the absence of the test compound.

T1 sequence (P04114 28-4563): as above

Regarding `CC(=O)N[C@H](CC(=O)O)C(=O)N[C@H](CC(N)=O)C(=O)N[C@H](CC(=O)O)C(=O)N[C@H](CO)C(=O)N[C@H](CCC(=O)O)C(=O)N[C@H](CC(=O)O)C(=O)N[C@H](CC(N)=O)C(=O)N[C@H](CO)C(=O)N[C@H](CC(=O)O)C(=O)N[C@H](CCC(=O)O)C(=O)N[C@H](CCC(=O)O)C(=O)N[C@H](CC(N)=O)C(N)=O` [Example 10, Ac-D-Asp-D-Asn-D-Asp-D-Ser-D-Glu-D-Asp-D-Asn-D-Ser-D-Asp-D-Glu-D-Glu-D-Asn-NH2] (Ac-[dD][dN][dD][dS][dE][dD][dN][dS][dD][dE][dE][dN]-NH2), the inhibition (usually the drop in the measured response relative to a control, in per cent) at 10 µM on SMase-treated LDL was found to be 96%; on PLA2-treated LDL it was 94%. Besides, the “CE/FC ratio decrease (%)” value in experiment [1] amounted to 78.4%.

As for `CC(=O)N[C@H](CC(=O)O)C(=O)N[C@H](C)C(=O)N[C@H](CCC(=O)O)C(=O)N[C@H](CC(=O)O)C(=O)N[C@H](CC(N)=O)C(=O)N[C@H](C)C(=O)N[C@H](CC(=O)O)C(=O)N[C@H](CCC(=O)O)C(=O)N[C@H](CCC(=O)O)C(=O)N[C@H](C)C(N)=O` [Example 17, Ac-D-Asp-D-Ala-D-Glu-D-Asp-D-Asn-D-Ala-D-Asp-D-Glu-D-Glu-D-Ala-NH2] (Ac-[dD][dA][dE][dD][dN][dA][dD][dE][dE][dA]-NH2), the inhibition at 10 µM on SMase-treated LDL stood at 95.2%; on PLA2-treated LDL it was 66.1%. For the same molecule, in experiment [1], the “CE/FC ratio decrease (%)” value amounted to 67.4%.

For the molecule `CC(=O)N[C@H](CC(=O)O)C(=O)N[C@H](CO)C(=O)N[C@H](CCC(=O)O)C(=O)N[C@H](CC(=O)O)C(=O)N[C@H](CC(N)=O)C(=O)N[C@H](CCCCN)C(=O)N[C@H](CC(=O)O)C(=O)N[C@H](CCC(=O)O)C(=O)N[C@H](CCC(=O)O)C(=O)N[C@H](CC(N)=O)C(N)=O` [Example 18, Ac-D-Asp-D-Ser-D-Glu-D-Asp-D-Asn-D-Lys-D-Asp-D-Glu-D-Glu-D-Asn-NH2] (Ac-[dD][dS][dE][dD][dN][dK][dD][dE][dE][dN]-NH2), the inhibition at 10 µM was 85.1% at SMase-treated LDL and 55.1% at PLA2-treated LDL. The “CE/FC ratio decrease (%)” value in experiment [1] turned out to be 47.6%.

Consider `CC(=O)N[C@H](CC(=O)O)C(=O)N[C@H](CO)C(=O)N[C@H](CCC(=O)O)C(=O)N[C@H](CC(=O)O)C(=O)N[C@H](CC(N)=O)C(=O)N[C@H](CO)C(=O)N[C@H](CC(=O)O)C(=O)N[C@H](CCC(=O)O)C(=O)N[C@H](CCC(=O)O)C(=O)N[C@H](C)C(N)=O` [Example 15, Ac-D-Asp-D-Ser-D-Glu-D-Asp-D-Asn-D-Ser-D-Asp-D-Glu-D-Glu-D-Ala-NH2] (Ac-[dD][dS][dE][dD][dN][dS][dD][dE][dE][dA]-NH2), for which the inhibition at 10 µM at SMase-treated LDL was 96%; at PLA2-treated LDL, 95.9%. In addition, the “CE/FC ratio decrease (%)” value in experiment [1] is listed as 90.2%.

`CC(=O)NCC(=O)N[C@H](CC(=O)O)C(=O)N[C@H](CC(N)=O)C(=O)N[C@H](CC(=O)O)C(=O)N[C@H](CO)C(=O)N[C@H](CCC(=O)O)C(=O)N[C@H](CC(=O)O)C(=O)N[C@H](CC(N)=O)C(=O)N[C@H](CO)C(=O)N[C@H](CC(=O)O)C(=O)N[C@H](CCC(=O)O)C(=O)N[C@H](CCC(=O)O)C(=O)N[C@H](CC(N)=O)C(N)=O` [Example 1, Ac-Gly-D-Asp-D-Asn-D-Asp-D-Ser-D-Glu-D-Asp-D-Asn-D-Ser-D-Asp-D-Glu-D-lu-D-Asn-NH2] (Ac-G[dD][dN][dD][dS][dE][dD][dN][dS][dD][dE][dE][dN]-NH2): the inhibition at 10 µM worked out at 92.5% at SMase-treated LDL and 77.5% at PLA2-treated LDL. For the same molecule, the “CE/FC ratio decrease (%)” value in experiment [1] came out at 76.5%.

In the case of `CC(=O)N[C@H](CC(=O)O)C(=O)N[C@H](CO)C(=O)N[C@H](CCC(=O)O)C(=O)N[C@H](CC(=O)O)C(=O)N[C@H](CC(N)=O)C(=O)N[C@H](C)C(=O)N[C@H](CC(=O)O)C(=O)N[C@H](CCC(=O)O)C(=O)N[C@H](CCC(=O)O)C(=O)N[C@H](C)C(N)=O` [Example 16, Ac-D-Asp-D-Ser-D-Glu-D-Asp-D-Asn-D-Ala-D-Asp-D-Glu-D-Glu-D-Ala-NH2] (Ac-[dD][dS][dE][dD][dN][dA][dD][dE][dE][dA]-NH2), the figures for the inhibition at 10 µM against SMase-treated LDL and on PLA2-treated LDL were 94% and 61.9%, respectively. Further, in experiment [1], the “CE/FC ratio decrease (%)” value is recorded as 69.5%.

In the case of `CC(=O)N[C@H](CO)C(=O)N[C@H](CCC(=O)O)C(=O)N[C@H](CC(=O)O)C(=O)N[C@H](CC(N)=O)C(=O)N[C@H](CCCCN)C(=O)N[C@H](CC(=O)O)C(=O)N[C@H](CCC(=O)O)C(=O)N[C@H](CCC(=O)O)C(=O)N[C@H](CC(N)=O)C(N)=O` [Example 9, Ac-D-Ser-D-Glu-D-Asp-D-Asn-D-Lys-D-Asp-D-Glu-D-Glu-D-Asn-NH2] (Ac-[dS][dE][dD][dN][dK][dD][dE][dE][dN]-NH2), the inhibition at 10 µM at SMase-treated LDL was 91%; on PLA2-treated LDL, 36.4%. Also, the “CE/FC ratio decrease (%)” value in experiment [1] turned out to be 58.8%.

With `CC(=O)N[C@H](CC(N)=O)C(=O)N[C@H](CC(=O)O)C(=O)N[C@H](CO)C(=O)N[C@H](CCC(=O)O)C(=O)N[C@H](CC(=O)O)C(=O)N[C@H](CC(N)=O)C(=O)N[C@H](CO)C(=O)NC(CC(=O)O)C(=O)N[C@H](CCC(=O)O)C(=O)N[C@H](CCC(=O)O)C(=O)N[C@H](C)C(N)=O` (stereo partly drawn) [Example 14, Ac-D-Asn-D-Asp-D-Ser-D-Glu-D-Asp-D-Asn-D-Ser-D-Asp-D-Glu-D-Glu-D-Ala-NH2] (Ac-[dN][dD][dS][dE][dD][dN][dS][ξD][dE][dE][dA]-NH2), the inhibition at 10 µM against SMase-treated LDL is 68.3%; at PLA2-treated LDL, 74%. The “CE/FC ratio decrease (%)” value in experiment [1] is on record as 62.7%.
